Reference: US20240059739A1, “PEPTIDES FOR INCREASING DRUG DELIVERY TO CANCER” (Chapman University, priority 2022, published 2024)

System: A375 melanoma cells
Assay: In vitro cytotoxicity detected by MTT colorimetric assay
Type: cell-based, human
Details: Homo sapiens, A-375, 72 h, DOX 0.5 μM alone, 72 h, A375; read-out: cell viability, of control
Procedure: The bar represents the average fluorescence density of three cell lines (A375, Sk-mel-28, and wm3211 cells) detected by fluorescence-activated cell sorting (FACS) analysis. The cells were incubated with FITC-labeled peptide for […] at 37° C. (0.5 μM, grey bar; 1 μM, dark bar). The control is cells incubated with FITC alone. […] Cells were either treated with DOX or co-treated with DOX and KK-11 (1 μM) for 72 h (KK-11+DOX) or pretreated with KK-11 for 4 h, then washed away following a DOX 72 h treatment (KK-11 to DOX). Control is DMSO or KK-11 alone. Cell viability was detected by a MTT colorimetric assay. Statistical analysis was performed with a student's t-test, and error bars denote mean±SD; **, p<0.01; ***, p<0.001 compared to DOX alone. […] Cells were treated with MAC-3-190 at various concentrations with or without 1 μM KK-11 for 72 h. Cell viability was detected by MTT assay. The assays were repeated independently at least three times.
In vitro cytotoxicity detected by MTT colorimetric assay. Cells were seeded in a 96-well plate and allowed to adhere overnight prior to adding the compound. After 72 h of treatment in serum-free media, an MTT solution was added to each well to give a final concentration of 0.5 mg/mL and was incubated for 3 h. Formed crystals were solubilized, and the absorbance was measured at 595 nm.

Molecule COc1cccc2c1C(=O)c1c(O)c3c(c(O)c1C2=O)C[C@@](O)(C(=O)CO)C[C@@H]3O[C@H]1C[C@H](N)[C@H](O)[C@H](C)O1 [DOX, doxorubicin] has a viability at 0.5 µM of 62%.

Same assay, conditions: Homo sapiens, A-375, 72 h, DOX 0.5 μM co-treatment with KK-11 (1 μM), 72 h, A375; read-out: cell viability, of control

COc1cccc2c1C(=O)c1c(O)c3c(c(O)c1C2=O)C[C@@](O)(C(=O)CO)C[C@@H]3O[C@H]1C[C@H](N)[C@H](O)[C@H](C)O1 [DOX, doxorubicin] showed a viability at 1 µM of 40%.

Same assay, conditions: Homo sapiens, A-375, 72 h, DOX 1 μM alone, 72 h, A375; read-out: cell viability (cells survived)

Molecule COc1cccc2c1C(=O)c1c(O)c3c(c(O)c1C2=O)C[C@@](O)(C(=O)CO)C[C@@H]3O[C@H]1C[C@H](N)[C@H](O)[C@H](C)O1 [DOX, doxorubicin] has a viability at 1 µM of 24%.

Same assay, conditions: Homo sapiens, A-375, 72 h, DOX 1 μM in combination with KK-11 (1 μM), 72 h, A375; read-out: cell viability, of control

Work on COc1cccc2c1C(=O)c1c(O)c3c(c(O)c1C2=O)C[C@@](O)(C(=O)CO)C[C@@H]3O[C@H]1C[C@H](N)[C@H](O)[C@H](C)O1 [DOX, doxorubicin] yielded a viability at 1 µM of 14%.

Same assay, conditions: KK-11 and DOX sequentially (KK-11 pretreatment 4 h, washed, then DOX 72 h)

COc1cccc2c1C(=O)c1c(O)c3c(c(O)c1C2=O)C[C@@](O)(C(=O)CO)C[C@@H]3O[C@H]1C[C@H](N)[C@H](O)[C@H](C)O1 [DOX, doxorubicin] was tested, and the “change of DOX cytotoxicity” value was “failed to produce any changes on DOX cytotoxicity”.

System: human melanoma A375 tumor xenografts and organs
Assay: In vivo and ex vivo imaging of biodistribution in mice bearing A375 xenografts
Parameters: species or system athymic nude mice
Details: ex vivo imaging
Procedure: FIG. 4A and FIG. 4B-1 and FIG. 4B-2 show in vivo and ex vivo organ distribution images of VivoTag 680 XL-labeled D-aa KK-11 in athymic nude mice bearing human melanoma A375 tumors. Saline or VivoTag-KK-11 in a dose of 8 μg per mouse was injected into the mice via the tail vein (n=2 for each time point).
The top panels represent the scanned images of the tumor section area in coronal views. The bottom-row pictures display the fluorescence image in trans-axial views: arrows point to the spine, and circles mark the xenograft tumors.
Organs including tumor xenografts (T), liver (L), spleen (S), heart and lungs (H+L), kidneys (K), and brain (B) were excised and imaged using the IVIS Spectrum imaging system. Representative fluorescence images of different organs show peptide distribution at different time points as indicated.
Ex vivo and in vivo imaging. The study was carried out in compliance with Animal Research: Reporting of In Vivo Experiments (ARRIVE) guidelines. All the animal procedures were approved by the Institutional Animal Care and Use Committee (IACUC) at Chapman University and conducted in compliance with the policies of Chapman University, and federal, state, and local animal welfare authorities. Male and female athymic nude mice (4-6 weeks old) were kept (5 in each cage) in a pathogen-free environment. Approximately 10^6 human melanoma A375 cells (0.1 mL in normal saline), mixed with 0.1 mL cold Matrigel (#354248; Corning, Corning, NY), were injected subcutaneously in the flank. The tumor size was measured with a caliper, and body weight was recorded once a week. When the tumor size reached approximately 800-1000 mm^3 as calculated using the following formula: [Length×(Width^2)]/2 (in mm), mice were processed for in vivo or ex vivo imaging.
For in vivo imaging, normal saline or VivoTag-KK-11 at a dose of 8 μg per mouse was injected into the mice via the tail vein (n=2 for each time point). The animals were then scanned at different time intervals (0.5, 2, 6, and 24 h) using an IVIS Spectrum in vivo imaging system (PerkinElmer, Waltham, MA). The mice were imaged for 0.5 sec, 10 bin, level B at an emission wavelength of 688±5 nm. Imaging was limited to no more than once a day and was conducted under continuously maintained isoflurane. Mice were maintained on alfalfa-free diets to minimize the background fluorescence. All the study animals survived through the in vivo imaging procedure.
For ex vivo imaging at defined time intervals (5, 15, 30 min, followed by 1, 1.5, 2, 3, 4, 6, 24, and 48 h) following fluorescence conjugate injection, animals were euthanized via carbon dioxide inhalation (n=2 for each time point); tumor, liver, spleen, heart, lungs, brain, and kidneys were collected and briefly rinsed with saline. The organs were then imaged for 0.5 sec, 10 bin, level B at an emission wavelength of 688±5 nm using an IVIS Spectrum imaging system.

In the case of “VivoTag- Aβ-VPWxEPAYQrFL [VivoTag-KK-11]”, the brain penetration is reported as “no brain penetration was observed”.

In the case of “VivoTag- Aβ-VPWxEPAYQrFL [VivoTag-KK-11]”, the “time by which cleared from other organs (lungs, heart, spleen)” value is reported as no more than 6 h.

For “VivoTag- Aβ-VPWxEPAYQrFL [VivoTag-KK-11]”, the “time detected in kidneys” value was “up to 48 h”.

Same assay, conditions: ex vivo imaging, 8 μg per mouse, tail vein

In the case of “VivoTag- Aβ-VPWxEPAYQrFL [VivoTag-KK-11]”, the “time at which fluorescence is evident in tumor xenografts” value is reported as no more than 5 min.

Same assay, conditions: in vivo IVIS CT-fluorescence imaging of live mice

“VivoTag- Aβ-VPWxEPAYQrFL [VivoTag-KK-11]” was tested, and the “time by which distributed to the xenograft tumor” value was no more than 30 min.

“VivoTag- Aβ-VPWxEPAYQrFL [VivoTag-KK-11]” was tested, and the “time fluorescence remained detectable in tumor xenografts” value was 25 h.

System: human melanoma cell lines (A375, Sk-mel-28, wm115) compared to normal human HEK-293 cells
Assay: Peptide array-whole cell binding assay (CyQUANT fluorescence)
Type: cell-based
Details: average fluorescent intensity of melanoma cells (A375, Sk-mel-28, wm115) bound to peptide divided by that of HEK-293 cells bound to same peptide
Source text: Peptide array synthesis. Fifty-three peptide sequences were synthesized in duplicate on derivatized cellulose membrane (Intavis, Germany) using a ResPep SL Autospot robot. The detailed method was explained previously (Ahmed et al. Anal Chem. 82:7533-7541, 2010; Hossein-Nejad-Ariani et al. Sci Rep. 9:2723, 2019). Briefly, the sequences of peptides were entered in the robot software, and 384 spot synthesis mode was selected for this library. First, the membrane was dipped in DMF for an hour followed by transfer and support to the holder of the robot on filter paper. Then the membrane was washed with ethanol and subjected to a vacuum to remove any bubbles under the membrane. The Fmoc strategy was used for peptide synthesis. DIC and Oxyma pure were used as coupling reagent and racemization suppressor, respectively. After each coupling, capping of unreacted amino acids was done using acetic anhydride (3%), followed by 20% piperidine for Fmoc deprotection. The C-terminal end of all peptides were bound to the membrane. Following the synthesis, the membrane was dipped in deprotection solution containing 15 mL TFA, 15 mL DCM, 900 μL TIPS, and 600 μL water, and kept for 3 h at room temperature. Next, membranes were thoroughly washed with DCM, DMF, and ethanol. Finally, they were air dried and kept in a sealed bag at −20° C. until use.
Peptide array cell binding assay. The sequential steps of the assay are as described in a previous publication (Ahmed et al. 2010; Soudy et al. J Med Chem. 54:7523-7534, 2011). The membrane was dipped in ethanol for 30 sec to remove any precipitation of hydrophobic peptides. Then the membrane was dipped in sterile PBS at pH 7.4 for 30 min. The cells (75×10^3 cells/mL) were seeded directly on the membrane in a sterile plate and incubated at 37° C. for 4 h. After washing off the unbound cells with sterile PBS, pH 7.4, the membrane was frozen at −80° C. for 2 h. Subsequently, it was defrosted at room temperature and incubated in CyQUANT solution at 37° C. for 30 min following the manufacturer's protocol. The membrane was then washed with sterile PBS and air-dried.
Membranes were scanned using the ChemiDoc™ XRS+system (Bio-Rad) to analyze the fluorescence intensity of each spot. The setting was adjusted based on the excitation and emission wavelength of the CyQUANT dye at 465 nm and 535 nm, respectively. The fluorescence intensity (FI) was normalized by the FI of non-cancerous HEK-293 cells.
A library of 53 peptides was synthesized in an array format on a cellulose membrane using SPOT synthesis (Table 1). The peptide library was designed starting with five lead cancer cell targeting peptides, Arg peptide (1, Table 1), p160 analogue (11), RGD (16), GE11 (20), and LSD (37). Conservative substitutions, deletion from the N- or C-terminus, alanine scan, and scrambling of amino acids were used to design the analogues for the library. The peptides were screened for specific binding to three human melanoma cell lines. The cells were incubated with the cellulose membranes with conjugated peptides followed by incubation with CyQUANT fluorescence dye. A brief schematic for the peptide array-whole cell binding assay for screening peptides with high affinity for melanoma cells is shown in FIG. 2A. The relative cell adhesion capacities of the peptides to A375 (FIG. 2B), Sk-mel-28 (FIG. 2C), and wm115 were estimated based on the fluorescence of the bound melanoma cells compared to normal human HEK-293 cells.

Going from CLSAGKRKC [Peptide 44] to AGRKLDSKA [Peptide 38], the “Fluorescence Ratio” value falls from 1.44 to 1.39.

Going from YAWYGYTPQNVI [Peptide 24] to YHWYGYTPQKVI [Peptide 36], the “Fluorescence Ratio” value rises from 1.15 to 1.23.

First: YHWYGYTPQAVI [Peptide 31]
Second: YHWYGYAPQNVI [Peptide 28]
The “Fluorescence Ratio” value of the first is higher: 1.33 for the first, 1.26 for the second.

YHWYGYTPQDVI [Peptide 35] and CLSDGARKC [Peptide 46] are the same in “Fluorescence Ratio” value: 1.35 for the first, 1.35 for the second.

First: GRRPRPAPRP [Peptide 9]
Second: GRRPRPRPAP [Peptide 10]
The “Fluorescence Ratio” value of the first is higher: 1.51 for the first, 1.31 for the second.

Going from CLSEGKRKC [Peptide 50] to YHAYGYTPQNVI [Peptide 25], the “Fluorescence Ratio” value falls from 1.38 to 1.28.

Going from YHWAGYTPQNVI [Peptide 26] to WXEAAYQRFL [Peptide 12], the “Fluorescence Ratio” value rises from 1.29 to 1.31.

Compared with CLSDAKRKC [Peptide 45], RGEPAYQRFL [Peptide 17] is higher in “Fluorescence Ratio” value: 1.22 for the first, 1.30 for the second.

First: FVPWLEAPYA [Peptide 15]
Second: CLSDGRRKC [Peptide 51]
The “Fluorescence Ratio” value of the first is higher: 1.61 for the first, 1.32 for the second.

Compared with ALSDGKRKA [Peptide 40], EPAAYQRFTA [Peptide 13] is higher in “Fluorescence Ratio” value: 1.23 for the first, 1.39 for the second.

First: GRAPRPRPRP [Peptide 7]
Second: CLSDGKAKC [Peptide 47]
The “Fluorescence Ratio” value of the first is higher: 1.47 for the first, 1.27 for the second.

First: YHWYGYTAQNVI [Peptide 29]
Second: AHWYGYTPQNVI [Peptide 23]
The “Fluorescence Ratio” value of the first is higher: 1.32 for the first, 1.31 for the second.

Compared with RVPWLEAPYA [Peptide 14], YHWYGYTPQNVA [Peptide 33] is lower in “Fluorescence Ratio” value: 1.42 for the first, 1.35 for the second.

Going from YGPWYNHYITQV [Peptide 22] to GRRPRPRPRPWWW [Peptide 4], the “Fluorescence Ratio” value rises from 1.28 to 1.46.

First: CLADGKRKC [Peptide 43]
Second: YHWYGTPQNVI [Peptide 20]
The “Fluorescence Ratio” value of the first is higher: 1.26 for the first, 1.20 for the second.

Going from GRRPRPRPRPWWWW [Peptide 5] to GRRPRPRPRPW [Peptide 2], the “Fluorescence Ratio” value rises from 1.43 to 1.60.

First: RGDPAYQGRFL [Peptide 19]
Second: ADRSKGKLA [Peptide 39]
The “Fluorescence Ratio” value of the first is higher: 1.35 for the first, 1.27 for the second.

Compared with YHWYGYTPANVI [Peptide 30], GRRPAPRPRP [Peptide 8] is higher in “Fluorescence Ratio” value: 1.30 for the first, 1.57 for the second.

Compared with YHWYGYTPQNAI [Peptide 32], CASDGKRKC [Peptide 42] is lower in “Fluorescence Ratio” value: 1.29 for the first, 1.25 for the second.

Compared with CLSDGKRRC [Peptide 52], WLSDGKRKC [Peptide 53] is lower in “Fluorescence Ratio” value: 1.27 for the first, 1.12 for the second.

Going from GARPRPRPRP [Peptide 6] to RGDAAYQRFL [Peptide 16], the “Fluorescence Ratio” value rises from 1.37 to 1.47.

First: CLSDGKRKA [Peptide 49]
Second: CLSDGKRKC [Peptide 37]
The “Fluorescence Ratio” value of the first is higher: 1.57 for the first, 1.29 for the second.

Going from WQTNYIHPYVYG [Peptide 21] to ALSGKRKC [Peptide 41], the “Fluorescence Ratio” value rises from 1.21 to 1.32.

First: CLSDGKRAC [Peptide 48]
Second: GRRPRPRPRPWW [Peptide 3]
The “Fluorescence Ratio” value of the first is lower: 1.12 for the first, 1.50 for the second.

Going from YHWYGATPQNVI [Peptide 27] to RGEPAYQGRFL [Peptide 18], the “Fluorescence Ratio” value rises from 1.19 to 1.24.

For YHWYGYTPENVI [Peptide 34], the “Fluorescence Ratio” value was 1.36.
